Results as given in patent publication US20200291018A1, “TAM KINASE INHIBITORS” (SYROS PHARMACEUTICALS, INC., priority 2017, published 2020).

Tests used:
AXL = target: T1, AXL (Homo sapiens, UniProt P30530); assay: TR-FRET kinase activity assay, AXL; type: biochemical; conditions: ATP at Km, 60 minutes
T1 sequence (P30530 26-894): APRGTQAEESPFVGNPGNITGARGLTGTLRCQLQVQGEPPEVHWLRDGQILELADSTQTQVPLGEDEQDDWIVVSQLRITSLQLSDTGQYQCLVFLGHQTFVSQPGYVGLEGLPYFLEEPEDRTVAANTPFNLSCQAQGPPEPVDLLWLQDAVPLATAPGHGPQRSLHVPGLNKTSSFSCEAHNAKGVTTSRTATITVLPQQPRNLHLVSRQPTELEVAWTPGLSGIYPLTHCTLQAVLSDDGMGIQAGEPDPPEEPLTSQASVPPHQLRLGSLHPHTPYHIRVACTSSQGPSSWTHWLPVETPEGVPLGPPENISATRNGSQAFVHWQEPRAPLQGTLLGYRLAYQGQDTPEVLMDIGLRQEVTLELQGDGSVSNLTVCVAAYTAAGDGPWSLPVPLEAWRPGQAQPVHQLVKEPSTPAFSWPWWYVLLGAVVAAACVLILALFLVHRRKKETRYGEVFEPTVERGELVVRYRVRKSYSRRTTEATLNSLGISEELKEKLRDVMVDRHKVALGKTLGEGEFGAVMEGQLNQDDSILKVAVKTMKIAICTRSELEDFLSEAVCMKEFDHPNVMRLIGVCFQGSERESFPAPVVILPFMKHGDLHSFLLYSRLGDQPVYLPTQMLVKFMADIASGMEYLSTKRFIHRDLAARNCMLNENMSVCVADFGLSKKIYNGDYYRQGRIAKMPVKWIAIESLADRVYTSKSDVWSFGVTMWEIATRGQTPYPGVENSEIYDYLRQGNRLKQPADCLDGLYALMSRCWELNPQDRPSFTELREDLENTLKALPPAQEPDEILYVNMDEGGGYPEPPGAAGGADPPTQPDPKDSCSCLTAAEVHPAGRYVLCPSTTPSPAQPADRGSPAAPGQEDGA
In short: (§1)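 IC50s come from loss of TR-FRET between a Eu-labeled phospho-site antibody and fluorescent tyrosine-phosphorylated peptide. Kinase reactions, initiated with Km ATP, ran 60 min at RT at pH 7.5 before EDTA quench.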

MERTK = target: T2, MERTK (Homo sapiens, UniProt Q12866); assay: TR-FRET kinase activity assay, MERTK; type: biochemical; conditions: for IC50: TR-FRET activity assay, ATP at Km, 60 minutes, read-out: Mer IC50; for Mer/Flt3 ratio (FLT3 IC50/Mer IC50): ratio calculated as FLT3 IC50/Mer IC50
T2 sequence (Q12866 21-999): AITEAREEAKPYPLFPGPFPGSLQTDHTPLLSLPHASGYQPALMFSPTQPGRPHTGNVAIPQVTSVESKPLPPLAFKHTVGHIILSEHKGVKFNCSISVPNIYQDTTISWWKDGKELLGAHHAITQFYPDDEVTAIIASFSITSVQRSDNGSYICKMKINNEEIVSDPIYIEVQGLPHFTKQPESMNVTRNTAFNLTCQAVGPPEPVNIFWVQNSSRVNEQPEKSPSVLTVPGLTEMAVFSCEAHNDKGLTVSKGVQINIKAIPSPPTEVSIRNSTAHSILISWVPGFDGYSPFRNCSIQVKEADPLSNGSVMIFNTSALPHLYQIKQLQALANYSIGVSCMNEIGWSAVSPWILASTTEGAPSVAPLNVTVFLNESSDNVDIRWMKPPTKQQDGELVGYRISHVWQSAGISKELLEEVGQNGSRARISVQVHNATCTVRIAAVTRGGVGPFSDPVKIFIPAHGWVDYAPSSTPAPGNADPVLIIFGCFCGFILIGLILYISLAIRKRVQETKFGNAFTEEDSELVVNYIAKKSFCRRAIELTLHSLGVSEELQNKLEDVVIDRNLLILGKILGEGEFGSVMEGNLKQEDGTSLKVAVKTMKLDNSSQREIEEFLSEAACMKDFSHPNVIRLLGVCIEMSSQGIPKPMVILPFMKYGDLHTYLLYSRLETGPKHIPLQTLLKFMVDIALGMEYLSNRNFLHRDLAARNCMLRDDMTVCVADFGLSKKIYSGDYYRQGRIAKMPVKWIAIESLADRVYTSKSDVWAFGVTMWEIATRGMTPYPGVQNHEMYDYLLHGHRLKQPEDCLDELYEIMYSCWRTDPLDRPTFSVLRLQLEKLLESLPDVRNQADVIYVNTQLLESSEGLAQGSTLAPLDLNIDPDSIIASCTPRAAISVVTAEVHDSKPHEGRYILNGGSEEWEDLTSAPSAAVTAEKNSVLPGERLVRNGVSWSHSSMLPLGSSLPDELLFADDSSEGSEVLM
In short: as §1

| SMILES | IC50 (AXL) | IC50 (MERTK) | Mer/Flt3 ratio (FLT3 IC50/Mer IC50) (MERTK) |
| --- | --- | --- | --- |
| CCCC(C)Nc1ncc2c(=O)n(C3CCNCC3)cc([C@H]3CC[C@H](O)CC3)c2n1 (stereo partly drawn) [Compound 112] | 100 to 1000 nM | ≤ 100 nM | +++ (a ratio of >100) |
| CCCCNc1cc2c(cn1)c(=O)n(C1CCN(C)CC1)cc2[C@H]1CC[C@H](O)CC1 [Compound 116] | 100 to 1000 nM | ≤ 100 nM | + (a ratio of >2.0 and <10) |
| CCCC(C)Nc1ncc2c(=O)n(C3CCN(C)CC3)cc([C@H]3CC[C@H](O)CC3)c2n1 (stereo partly drawn) [Compound 117] | 100 to 1000 nM | ≤ 100 nM | +++ (a ratio of >100) |
| CC(C)CC(C)Nc1ncc2c(=O)n(C3CCNCC3)cc([C@H]3CC[C@H](O)CC3)c2n1 (stereo partly drawn) [Compound 119] | 100 to 1000 nM | ≤ 100 nM | +++ (a ratio of >100) |
| CS(=O)(=O)N1CC[C@H](Nc2ncc3c(OC4CCOCC4)ncc([C@H]4CC[C@H](O)CC4)c3n2)C1 [Compound 278] | 1000 to 10000 nM | 100 to 1000 nM | ++ (a ratio of between 10 and 100) |
| COC[C@H](C)Nc1ncc2c(OC3CCOCC3)ncc(-c3ccc(N4CCN(C)CC4)cc3)c2n1 [Compound 279] | 1000 to 10000 nM | 100 to 1000 nM | ++ (a ratio of between 10 and 100) |
| COC[C@H](C)Nc1ncc2c(OC3CCOCC3)ncc(-c3ccc(C4CCN(C)CC4)cc3)c2n1 [Compound 280] | 100 to 1000 nM | ≤ 100 nM | ++ (a ratio of between 10 and 100) |
| CCOC[C@H](C)Nc1ncc2c(OC3CCOCC3)ncc([C@H]3CC[C@H](O)CC3)c2n1 [Compound 281] | 1000 to 10000 nM | ≤ 100 nM | +++ (a ratio of >100) |
| CN1CC(Nc2ncc3c(OC4CCOCC4)ncc([C@H]4CC[C@H](O)CC4)c3n2)CC1=O (stereo partly drawn) [Compound 282] | 1000 to 10000 nM | 1000 to 10000 nM | ++ (a ratio of between 10 and 100) |
| O=C(O)c1ccc(Nc2ncc3c(OC4CCNCC4)ncc([C@H]4CC[C@H](O)CC4)c3n2)cc1 [Compound 283] | ≤ 100 nM | ≤ 100 nM | +++ (a ratio of >100) |
| C[C@@H](CCO)Nc1ncc2c(OC3CCOCC3)ncc([C@H]3CC[C@H](O)CC3)c2n1 [Compound 284] | 1000 to 10000 nM | ≤ 100 nM | +++ (a ratio of >100) |
| COC[C@H](C)Nc1cc2c(cn1)c(OC1CCOCC1)ncc2[C@H]1CC[C@H](O)CC1 [Compound 285] | 1000 to 10000 nM | ≤ 100 nM | +++ (a ratio of >100) |
| O[C@H]1CC[C@H](c2cnc(OC3CCOCC3)c3cnc(NCCC(F)(F)F)nc32)CC1 [Compound 286] | 100 to 1000 nM | ≤ 100 nM | + (a ratio of >2.0 and <10) |
| CC[C@H](C)Nc1ncc2c(O[C@H]3CC[C@](C)(O)CC3)ncc([C@H]3CC[C@H](O)CC3)c2n1 [Compound 287] | 100 to 1000 nM | ≤ 100 nM | ++ (a ratio of between 10 and 100) |
| CC(C)Nc1ncc2c(OC3CCOCC3)ncc(-c3cccc(S(=O)(=O)N(C)C)c3)c2n1 [Compound 288] | 100 to 1000 nM | ≤ 100 nM | +++ (a ratio of >100) |
| COC[C@H](C)Nc1ncc2c(OC3CCN(S(C)(=O)=O)CC3)ncc([C@H]3CC[C@H](O)CC3)c2n1 [Compound 289] | 100 to 1000 nM | ≤ 100 nM | +++ (a ratio of >100) |
| CC[C@H](C)Nc1ncc2c(=O)n([C@H]3CC[C@H](N)CC3)cc([C@H]3CC[C@H](O)CC3)c2n1 [Compound 290] | 100 to 1000 nM | ≤ 100 nM | +++ (a ratio of >100) |
| CC1(Nc2ncc3c(OC4CCNCC4)ncc([C@H]4CC[C@H](O)CC4)c3n2)CC1 [Compound 291] | 100 to 1000 nM | ≤ 100 nM | +++ (a ratio of >100) |
| C[C@@H](CC#N)Nc1ncc2c(OC3CCOCC3)ncc([C@H]3CC[C@H](O)CC3)c2n1 [Compound 292] | 100 to 1000 nM | ≤ 100 nM | +++ (a ratio of >100) |
| COC[C@H](C)Nc1ncc2c(OC3CCOCC3)ncc([C@H]3CC[C@](C)(O)CC3)c2n1 [Compound 293] | 100 to 1000 nM | ≤ 100 nM | +++ (a ratio of >100) |
| COC[C@H](C)Nc1ncc2c(OC3CCOCC3)ncc([C@H]3CC[C@@](C)(O)CC3)c2n1 [Compound 294] | 1000 to 10000 nM | ≤ 100 nM | +++ (a ratio of >100) |

More lines, now with the values ahead:

| IC50 (AXL) | IC50 (MERTK) | Mer/Flt3 ratio (FLT3 IC50/Mer IC50) (MERTK) | SMILES |
| --- | --- | --- | --- |
| 100 to 1000 nM | ≤ 100 nM | +++ (a ratio of >100) | COC[C@H](C)Nc1ncc2c(O[C@H]3C[C@H](O)C3)ncc([C@H]3CC[C@H](O)CC3)c2n1 [Compound 295] |
| 100 to 1000 nM | ≤ 100 nM | +++ (a ratio of >100) | COC[C@H](C)Nc1ncc2c(O[C@H]3C[C@@H](O)C3)ncc([C@H]3CC[C@H](O)CC3)c2n1 [Compound 296] |
| 1000 to 10000 nM | 100 to 1000 nM | ++ (a ratio of between 10 and 100) | CNC(=O)Nc1ccc(-c2cnc(OC3CCOCC3)c3cnc(N[C@@H](C)COC)nc23)cc1 [Compound 297] |
| 100 to 1000 nM | ≤ 100 nM | +++ (a ratio of >100) | CC[C@H](C)Nc1ncc2c(O[C@H]3CC[C@@H](N(C)C)C3)ncc([C@H]3CC[C@H](O)CC3)c2n1 [Compound 298] |
| ≤ 100 nM | ≤ 100 nM | ++ (a ratio of between 10 and 100) | O[C@H]1CC[C@H](c2cnc(OC3CCNCC3)c3cnc(Nc4ccc(Cl)c(Cl)c4)nc32)CC1 [Compound 299] |
| ≤ 100 nM | ≤ 100 nM | ++ (a ratio of between 10 and 100) | CCc1cc(Nc2ncc3c(OC4CCNCC4)ncc([C@H]4CC[C@H](O)CC4)c3n2)ccc1Cl [Compound 300] |
| 1000 to 10000 nM | ≤ 100 nM | +++ (a ratio of >100) | COC[C@H](C)Nc1ncc2c(OC3CCOCC3)ncc(-c3ccc(O)cc3)c2n1 [Compound 301] |
| 1000 to 10000 nM | 100 to 1000 nM | ++ (a ratio of between 10 and 100) | COC[C@H](C)Nc1ncc2c(O[C@H]3CCNCC3(F)F)ncc([C@H]3CC[C@H](O)CC3)c2n1 [Compound 302] |
| 100 to 1000 nM | ≤ 100 nM | +++ (a ratio of >100) | COC[C@H](C)Nc1ncc2c(C)ncc([C@H]3CC[C@H](O)CC3)c2n1 [Compound 303] |
| 100 to 1000 nM | ≤ 100 nM | +++ (a ratio of >100) | C[C@@H](CF)Nc1ncc2c(OC3CCOCC3)ncc([C@H]3CC[C@H](O)CC3)c2n1 [Compound 304] |
